{"source": "patent US12275688B2", "about": "“Crystalline solids of MEK inhibitor N-((R)-2,3-dihydroxypropoxy)-3,4-difluoro-2-(2-fluoro-4-iodo-phenylamino)-benzamide and uses thereof” (SpringWorks Therapeutics, Inc., priority 2021, dated 2025)", "type_in_all_cases": "physicochemical", "key": {"[1]": {"assay": "Water activity studies of hydrates at 23° C.", "settings": "water activities (aw) 0.6-0.99", "description": "Water activity studies of the stable hydrated Forms VI and XIX were conducted to determine their relative thermodynamic stabilities. The studies were conducted at 23° C. in various water/ethanol mixtures to provide water activities (aw) from 0.6-0.99. The water activity range includes the approximate water activity of the current final isolation step of the mirdametinib manufacturing process. Saturated suspensions were prepared by stirring an excess of mirdametinib in the test solvents for 16 hours. The suspensions were filtered and transferred onto mixtures containing equivalent amounts of Form VI and Form XIX. […] The hydrates may be kinetically favored at higher water activities."}, "[2]": {"assay": "Solid-state stability of crystal forms at ambient conditions", "settings": "ambient conditions", "excerpt": "The following sections describe and summarize the physical properties of each of the crystal forms observed for mirdametinib."}, "[3]": {"assay": "Desolvation/dehydration by heating in TGA pan to 100° C.", "settings": "15° C./min from 25 to 100° C., 5 min. hold at 100° C., air-cooled to RT", "description": "Desolvation/dehydration studies of certain forms were conducted in a TGA pan with loose lid at a heating rate of 15° C./min from 25 to 100° C. with a 5 min. hold at 100° C. Samples were air-cooled to RT on the TGA and analyzed by PXRD if crystalline. […] PXRD indicated Form I."}, "[4]": {"assay": "Toluene-spiked slurry studies of Form V in water:ethanol", "settings": "water:ethanol (1.1/0.5 v/v) overnight at RT", "excerpt": "The process-relevant toluene solvate (Form V) was stirred in water:ethanol (1.1/0.5 v/v) overnight at RT with varying amounts of added toluene. The suspensions were filtered, and solids analyzed by PXRD."}, "[5]": {"assay": "Drying of certain forms via vacuum oven at 45° C.", "settings": "overnight in vacuum oven at 45° C.; PXRD at about 70% ambient lab humidity", "description": "Drying studies for certain forms were conducted overnight in a vacuum oven at 45° C. After drying, samples were equilibrated to RT for 10 min. and analyzed by PXRD at about 70% ambient lab humidity."}}, "data": [{"compound": "O=C(NOC[C@H](O)CO)c1ccc(F)c(F)c1Nc1ccc(I)cc1F", "note": "[Form IV, N—((R)-2,3-dihydroxypropoxy)-3,4-difluoro-2-(2-fluoro-4-iodo-phenylamino)-benzamide]", "values": [{"measurement": "Relative stability versus hydrate Forms VI and XIX", "setting": "[1]", "result": "more stable at water activities (aw) 0.6-0.99 than hydrate Forms VI and XIX"}]}, {"compound": "O=C(NOC[C@H](O)CO)c1ccc(F)c(F)c1Nc1ccc(I)cc1F", "note": "[Form V, N—((R)-2,3-dihydroxypropoxy)-3,4-difluoro-2-(2-fluoro-4-iodo-phenylamino)-benzamide]", "values": [{"measurement": "Stable at ambient conditions for", "setting": "[2]", "result": "≥ 10", "unit": "days"}, {"measurement": "Result of desolvation/dehydration by heating", "setting": "[3]", "result": "melted and solidified in molten, amorphous state, possible decomposition"}, {"measurement": "Form after slurry (PXRD)", "setting": "[4]; 0.5% added toluene (relative to mirdametinib weight)", "result": "converted to mostly Form IV with some lesser amount of Form V"}, {"measurement": "Form after slurry (PXRD)", "setting": "[4]; 1% and 2% added toluene", "result": "higher relative amounts of Form V were observed"}, {"measurement": "Form after slurry (PXRD)", "setting": "[4]; no added toluene", "result": "converted to phase-pure Form IV"}, {"measurement": "Form after vacuum oven drying (PXRD)", "setting": "[5]", "result": "Remained unchanged"}]}]}
